According to publication PMC8587043, “An Investigation into the Interaction between Double Hydroxide-Based Antioxidant Benzophenone Derivatives and Cyclooxygenase 2” (Molecules, 2021):

Experiments:
EA.hy926 cells = assay: Protective effect against H2O2-induced oxidative damage, MTT assay; assay type: cell-based, human; conditions: for EC50: protection against H2O2-induced damage (400 µmol·L^−1, 4 h), n = 3, mean ± SD
Protocol: Hydrogen peroxide (H2O2), a small molecule and functions as oxidative stress and a second messenger which contributes to cell damage or death, could directly induce inflammation in several cell lines. H2O2-induced cell damage is a commonly used model for antioxidant activity evaluation. […] Thus, the concentration of 400 µmol·L^−1 at 4 h was chosen as the model.
Compound SC2 stock solutions were prepared in DMSO. The stock solutions were diluted with FBS free DMEM to different target concentrations (DMSO concentrations ≤ 0.5% v:v). Cells (100 μL, 2 × 10^5 cells∙mL^−1) were seeded on 96-well plates and cultured for 24 h. The medium was then replaced with fresh media containing H2O2 with different concentrations (0, 100, 200, 300, 400, 500, and 600 μmol·L^−1 in FBS free DMEM) and compound SC2 (50, 40, 30, 20, 10 µmol·L^−1), which were transferred to the incubator and cultured for additional time (2, 4, and 6 h). The medium was then replaced with 100 μL of FBS free DMEM and MTT (10 μL, 5 mg·mL^−1 in PBS) and after 4 h the medium was replaced with DMSO (100 μL). A microplate reader (SpectraMaxPlus384, Molecular Devices, United States) was used to record the absorbance at 490 nm for each well of the plates. Cell viability was measured via MTT assay. Survival rate (%) = (Asample group/Acontrol group) × 100%.
Cells (100 μL, 2 × 10^5 cells·mL^−1) were seeded in 96-well plates for 24 h. Cells were treated with different groups and cell viability was measured via MTT assay. The protection rates to oxidative damage were determined and EC50 values were calculated. The protection rates to cells were calculated using the following formula: Protection rate (%) = (Apretreatment group − Amodel group)/(Acontrol group − Amodel group) × 100%.

COX2 = biological target: T1, COX2 (Homo sapiens, UniProt P35354); assay: Three-dimensional fluorescence spectroscopy of COX2-compound systems; assay type: binding; conditions: for Peak Position λex/λem, peak 2 / Relative Intensity (I), peak 2 / Relative Intensity (I), peak 1: compound 4.50 × 10^−5 mol∙L^−1, 298 K; for Relative Intensity (I), peak 2: COX2 alone 775; for Relative Intensity (I), peak 1: COX2 alone 874
T1 construct: purchased Sino Biological Co. (Beijing, China)
T1 sequence (P35354 18-604): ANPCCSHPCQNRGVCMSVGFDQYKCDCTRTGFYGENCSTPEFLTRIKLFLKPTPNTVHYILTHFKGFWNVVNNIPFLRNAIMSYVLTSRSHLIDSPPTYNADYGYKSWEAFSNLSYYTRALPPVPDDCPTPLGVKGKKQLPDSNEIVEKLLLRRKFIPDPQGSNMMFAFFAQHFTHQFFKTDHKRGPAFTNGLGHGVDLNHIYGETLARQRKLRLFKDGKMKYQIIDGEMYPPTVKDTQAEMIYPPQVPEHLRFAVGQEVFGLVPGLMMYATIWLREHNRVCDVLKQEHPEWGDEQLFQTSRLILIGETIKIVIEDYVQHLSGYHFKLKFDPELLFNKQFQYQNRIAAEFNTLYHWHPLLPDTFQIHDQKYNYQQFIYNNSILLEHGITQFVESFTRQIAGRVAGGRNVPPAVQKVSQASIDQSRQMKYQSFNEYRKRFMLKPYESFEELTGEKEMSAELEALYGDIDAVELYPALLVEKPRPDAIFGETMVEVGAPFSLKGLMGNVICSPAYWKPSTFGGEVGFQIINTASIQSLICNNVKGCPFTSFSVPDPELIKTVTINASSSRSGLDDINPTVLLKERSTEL
Excerpt: Three-dimensional fluorescence spectroscopy can reflect the microenvironment of related fluorophores. It was employed to study the structural changes of COX2 before and after binding. Peak 1 and peak 2 were maintained at 272/338 nm and 230/337 nm, respectively. […] Peak 2 reflected the fluorescence information of the polypeptide backbone structure of COX2, involving pi-to-pi* transition related to the secondary structure changes. According to Figure 7 and Table 3, both peak 1 and peak 2 of COX2 had been quenched. […] Furthermore, the fluorescence intensity of peak 1 was higher than that of peak 2 in the spectra for COX2-SC2 complex (Table 3). It implies that the fluorescence quenching of COX2 by compound SC2 on peak 2 was more evident than on peak 1. We could draw a conclusion that the interaction of compound SC2 with COX2 induced the slight opening of the polypeptides of protein, thereafter changing the conformation of COX2. […] Comparison of Figure 7a with Figure 7c also implied that there was a blue shift of 5.5 nm for peak 1, and 4 nm for peak 2. […] These changes induced the increase in hydrophobicity of COX2, decrease in collisions between COX2 molecules and water, and increase in the quantum yield of COX2. […] Taken together, these combined results implicate the ability of compounds DB2, SC2 and YB2 to bind to COX2.
The fluorescence intensity of the system was measured with a 1.0 cm quartz cell. […] DB2, SC2 or YB2 stock solutions were prepared in singleton at 1.5 × 10^−3 mol∙L^−1 in PBS containing 0.1% DMSO. 2.0 mL COX2 solution was separately titrated by continuing additions of 10 μL compounds DB2, SC2 or YB2 solution). After incubation at 298 K or 310 K, fluorescence quenching spectra were recorded in the region 325-450 nm at a scan rate of 1200 nm∙min^−1. The local environment of Tyr and Trp residues was quite sensitive at 280 nm, so the excitation wavelength was set at this wavelength. Typically, 280 nm is also used to measure the changes in protein tertiary structure. The slit widths of emission and excitation were both fixed at 10 nm. To observe spectra behaviors of Tyr and Trp groups of COX2, the wavelength interval between the excitation and emission wavelengths (Δλ) was set as 15 nm and 60 nm, respectively. Three-dimensional fluorescence spectroscopy was obtained for an excitation range of 200–300 nm and an emission range of 325–400 nm. Appropriate buffer solutions, determined under the same operation conditions, were used as blanks. Each spectrum was recorded three times.

Row | SMILES | EC50 (EA.hy926 cells; Homo sapiens, EA.hy 926, 4 h) | Peak Position λex/λem, peak 2 (COX2) | Relative Intensity (I), peak 2 (COX2) | Relative Intensity (I), peak 1 (COX2) | protection from H2O2 induced cell damage (EA.hy926 cells; 5 µmol·L^−1 compound, four pre-chosen H2O2 treatments) | EC50 (EA.hy926 cells) | blue shift of peak 1 (COX2; COX2-compound vs COX2 alone) | blue shift of peak 2 (COX2; COX2-compound vs COX2 alone) | protection rate compared with positive controls (fenofibrate and quereetin) (EA.hy926 cells; statistical comparison)
1 | CCCCc1ccc(C(=O)c2c(Br)cc(O)c(O)c2O)cc1 [DB2] | 1360 ± 463 nM | 236/337 | 153 | 665 | – | – | – | – | –
2 | CC(C)(C)c1ccc(C(=O)c2c(Cl)cc(O)c(O)c2O)cc1 [SC2] | 6.25 ± 0.415 nM | 236/333 | 82.9 | 395 | protects the cells from H2O2 induced cell damage | 6.25 ± 0.415 nM | 5.5 nm | 4 nm | –
3 | CC(C)Cc1ccc(C(=O)c2c(Br)cc(O)c(O)c2O)cc1 [YB2] | 418 ± 24.6 nM | 236/336 | 103 | 472 | – | – | – | – | no significant difference
